Consider twelve compounds from PubChem BioAssay (NCI).

Among the test systems are SF-268 CNS; NCI/ADR-RES ovarian; NCI-H226 lung; SW-620 colon; EKVX NSCLC; NCI-H460 lung; COLO 205 colon; HOP-92 NSCLC; ACHN renal; K-562 leukemia; BT-549 breast; CCRF-CEM leukemia; SNB-19 CNS; TK-10 renal; RXF 393 renal; CAKI-1 renal; SK-MEL-28 melanoma; HCT-15 colon; HS 578T breast; MDA-MB-435.
Holding throughout (assay): NCI anticancer screen, dose series, 48 h

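Briefly, cells in 96-well plates were exposed to five compound concentrations for 48 h, and endpoints were estimated by linear interpolation. TGI: concentration producing complete growth inhibition.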

Take `COC(=O)CSc1cc(Cl)c(C)cc1S(=O)(=O)Nc1n[nH]c(N)n1`: the TGI with SF-268 CNS, in the experiment with NCI/ADR-RES ovarian, in the experiment with NCI-H226 lung, with SW-620 colon, with EKVX NSCLC and in the experiment on NCI-H460 lung was more than 10 µM in each case. Also, the TGI in the experiment with COLO 205 colon, with HOP-92 NSCLC, in the experiment on ACHN renal, in the experiment on K-562 leukemia, in the experiment on BT-549 breast and with CCRF-CEM leukemia was more than 10 µM each time. For the same compound, the TGI in the experiment with SNB-19 CNS, with TK-10 renal, in the experiment on RXF 393 renal, in the experiment on CAKI-1 renal, in the experiment on SK-MEL-28 melanoma and in the experiment with HCT-15 colon was more than 10 µM in each case. Besides, the TGI with HS 578T breast is more than 10 µM.
Consider `CC(/C=C/c1ccccc1)=N\NC(=S)N/N=C(C)/C=C/c1ccccc1`, for which the TGI was 21.7 µM in the experiment with SF-268 CNS; 99.5 µM in the experiment with NCI/ADR-RES ovarian; 63.1 µM with NCI-H226 lung; more than 100 µM in the experiment on SW-620 colon; more than 100 µM with EKVX NSCLC; 25.6 µM in the experiment on NCI-H460 lung. For the same compound, the TGI in the experiment on COLO 205 colon is more than 100 µM; with MDA-MB-435, more than 100 µM; with ACHN renal, more than 100 µM; in the experiment on K-562 leukemia, more than 100 µM; in the experiment with BT-549 breast it was 56.7 µM; with CCRF-CEM leukemia, more than 100 µM. For the same compound, the TGI was 74.7 µM with SNB-19 CNS; 46 µM in the experiment on TK-10 renal; 40.7 µM in the experiment with RXF 393 renal; more than 100 µM in the experiment with SK-MEL-28 melanoma; more than 100 µM with HCT-15 colon; more than 100 µM in the experiment on HS 578T breast.
In the case of `O=c1nc(N2CCCCC2)sc2[nH]c3ccccc3c12`, the TGI is more than 100 µM with SF-268 CNS; 25.7 µM in the experiment with NCI/ADR-RES ovarian; more than 100 µM with SW-620 colon; more than 100 µM in the experiment on EKVX NSCLC; more than 100 µM with NCI-H460 lung; more than 100 µM with COLO 205 colon. The TGI in the experiment with HOP-92 NSCLC, in the experiment on MDA-MB-435, in the experiment on ACHN renal, in the experiment with K-562 leukemia, with BT-549 breast and with SNB-19 CNS was more than 100 µM each time. Moreover, the TGI in the experiment with TK-10 renal, with CAKI-1 renal, in the experiment with SK-MEL-28 melanoma, in the experiment with HCT-15 colon and in the experiment with HS 578T breast was more than 100 µM throughout.
For `CN(C)CCNc1ncnc2nc(-c3ccccc3)c(-c3ccccc3)nc12`, the TGI with SF-268 CNS, in the experiment with NCI/ADR-RES ovarian, in the experiment on NCI-H226 lung, with SW-620 colon, with EKVX NSCLC and in the experiment on COLO 205 colon was more than 100 µM throughout. Besides, the TGI with MDA-MB-435, in the experiment on BT-549 breast, with CCRF-CEM leukemia, in the experiment with TK-10 renal, in the experiment on RXF 393 renal and in the experiment on CAKI-1 renal was more than 100 µM each time. The TGI in the experiment on SK-MEL-28 melanoma and in the experiment on HS 578T breast was more than 100 µM throughout.
Regarding `CN1CC=C(C#CC(C)(C)O)CC1`, the TGI in the experiment with SF-268 CNS, in the experiment with NCI/ADR-RES ovarian, with NCI-H226 lung, with SW-620 colon, with EKVX NSCLC and in the experiment with NCI-H460 lung was more than 37.5 µM throughout. Further, the TGI with COLO 205 colon, with MDA-MB-435, in the experiment on ACHN renal, in the experiment with K-562 leukemia, in the experiment on BT-549 breast and in the experiment with CCRF-CEM leukemia was more than 37.5 µM in each case. The TGI in the experiment on SNB-19 CNS, with TK-10 renal, in the experiment with RXF 393 renal, in the experiment with CAKI-1 renal, in the experiment on SK-MEL-28 melanoma and in the experiment on HCT-15 colon was more than 37.5 µM each time. Further, the TGI with HS 578T breast was more than 37.5 µM.
In the case of `O=S(=O)(Cc1ccccc1)c1nnc(S(=O)(=O)c2ccc(Cl)cc2)s1`, the TGI was 63.4 µM in the experiment on SF-268 CNS; 77.9 µM in the experiment on NCI/ADR-RES ovarian; 64.1 µM with SW-620 colon; 62 µM in the experiment with EKVX NSCLC; 48.2 µM with NCI-H460 lung; 36.6 µM in the experiment with COLO 205 colon. For the same compound, the TGI with MDA-MB-435 was 90.6 µM; with ACHN renal, 36.4 µM; with K-562 leukemia it was more than 100 µM; with BT-549 breast, 41.6 µM; with SNB-19 CNS, 60.2 µM; with TK-10 renal, 41.9 µM. For the same compound, the TGI in the experiment with RXF 393 renal amounted to 33.8 µM; in the experiment on CAKI-1 renal, 54 µM; with SK-MEL-28 melanoma, 44 µM; in the experiment with HCT-15 colon, 39.8 µM; in the experiment on HS 578T breast, 39.8 µM.
For the compound `Cc1ccc(S(=O)(=O)NC(=O)NC(CCCCN)C(=O)O)cc1` (stereo not given), the TGI in the experiment on SF-268 CNS, in the experiment on NCI/ADR-RES ovarian, with SW-620 colon, in the experiment on NCI-H460 lung, with COLO 205 colon and in the experiment with HOP-92 NSCLC was more than 100 µM throughout. Moreover, the TGI with ACHN renal, in the experiment on K-562 leukemia, in the experiment on BT-549 breast, in the experiment with CCRF-CEM leukemia, in the experiment on SNB-19 CNS and in the experiment with TK-10 renal was more than 100 µM throughout. In addition, the TGI in the experiment on RXF 393 renal, with SK-MEL-28 melanoma, in the experiment on HCT-15 colon and in the experiment on HS 578T breast was more than 100 µM each time.
On to `CC(C)(C)OC(=O)NC(Cc1ccc(OC(C)(C)C)cc1)C(=O)N[C@H]1CC[C@H](C(=O)O)C1` (stereo not given in full), for which the TGI with SF-268 CNS, with NCI/ADR-RES ovarian, with NCI-H226 lung, in the experiment on SW-620 colon, in the experiment with EKVX NSCLC and in the experiment with NCI-H460 lung was more than 100 µM each time. In addition, the TGI in the experiment on COLO 205 colon, in the experiment with MDA-MB-435, in the experiment with ACHN renal, with K-562 leukemia, with BT-549 breast and with CCRF-CEM leukemia was more than 100 µM throughout. The TGI with SNB-19 CNS, with TK-10 renal, in the experiment on SK-MEL-28 melanoma, with HCT-15 colon and in the experiment with HS 578T breast was more than 100 µM in each case.
Regarding `CNc1ccc(C)cc1S(=O)(=O)c1ccccc1[N+](=O)[O-]`, the TGI in the experiment with SF-268 CNS, in the experiment with NCI/ADR-RES ovarian, in the experiment with NCI-H226 lung, in the experiment on SW-620 colon, in the experiment with EKVX NSCLC and in the experiment on NCI-H460 lung was more than 100 µM throughout. The TGI with COLO 205 colon, in the experiment with MDA-MB-435, in the experiment with ACHN renal, in the experiment with K-562 leukemia, with BT-549 breast and with CCRF-CEM leukemia was more than 100 µM throughout. For the same compound, the TGI with SNB-19 CNS, with TK-10 renal, in the experiment with RXF 393 renal, in the experiment on SK-MEL-28 melanoma, in the experiment with HCT-15 colon and in the experiment with HS 578T breast was more than 100 µM throughout.
Consider `O=[N+]([O-])c1ccc(C2=NOC(c3ccccc3)N2C23CC4CC(CC(C4)C2)C3)cc1` (stereo not given), for which the TGI in the experiment on SF-268 CNS was more than 100 µM; with NCI/ADR-RES ovarian, more than 100 µM; with NCI-H226 lung, 89.9 µM; with SW-620 colon, more than 100 µM; in the experiment with EKVX NSCLC, more than 100 µM; in the experiment with NCI-H460 lung it was 47.5 µM. In addition, the TGI was 88.1 µM in the experiment on COLO 205 colon; 44.5 µM in the experiment with MDA-MB-435; more than 100 µM with ACHN renal; 39.9 µM in the experiment on K-562 leukemia; 46 µM in the experiment on BT-549 breast; 47.5 µM in the experiment on CCRF-CEM leukemia. The TGI in the experiment with TK-10 renal was more than 100 µM; in the experiment on CAKI-1 renal, 3.23 µM; in the experiment on SK-MEL-28 melanoma, more than 100 µM; in the experiment on HCT-15 colon, more than 100 µM; with HS 578T breast it was 52.6 µM.
In the case of `COC(=O)C1=C(N)C2=C(N)Oc3ccccc3C2CC1=C(C#N)C#N` (stereo not given), the TGI in the experiment with SF-268 CNS is 89.4 µM; with NCI/ADR-RES ovarian, 47.5 µM; with NCI-H226 lung, more than 100 µM; in the experiment on SW-620 colon, more than 100 µM; in the experiment with EKVX NSCLC, 84.4 µM; with COLO 205 colon, 44.1 µM. For the same compound, the TGI in the experiment on MDA-MB-435 is more than 100 µM; in the experiment on ACHN renal it was 72.8 µM; with K-562 leukemia, 57.3 µM; with BT-549 breast, 58.2 µM; with CCRF-CEM leukemia, more than 100 µM; in the experiment with SNB-19 CNS, 70.4 µM. Also, the TGI in the experiment with TK-10 renal was 52 µM; in the experiment on RXF 393 renal it was more than 100 µM; with CAKI-1 renal, 72.2 µM; with HCT-15 colon, 36.8 µM; with HS 578T breast it was 97.9 µM.
Take `O=C(Cn1c2ccc(Br)cc2c2nc3ccccc3nc21)NNC(=O)NC1CCCCC1`: the TGI with SF-268 CNS, with SW-620 colon, in the experiment with EKVX NSCLC, in the experiment with NCI-H460 lung, in the experiment on COLO 205 colon and in the experiment on MDA-MB-435 was more than 100 µM throughout. For the same compound, the TGI with ACHN renal is more than 100 µM; in the experiment with K-562 leukemia, more than 100 µM; in the experiment with BT-549 breast it was more than 100 µM; in the experiment on CCRF-CEM leukemia, 76.1 µM; with SNB-19 CNS it was more than 100 µM; in the experiment with TK-10 renal it was more than 100 µM. The TGI in the experiment with RXF 393 renal, with CAKI-1 renal, in the experiment on SK-MEL-28 melanoma and with HS 578T breast was more than 100 µM in each case.
